Laboratory results taken from patent publication US20250161351A1 (priority 2022, published 2025).

Columns and labels:
Test in all cases: cells
Nomo-1 cells = conditions: Homo sapiens, NOMO-1, 72 h, read-out: Relative cell viability compared to control
HL-60 cells = conditions: Homo sapiens, HL-60, 72 h, read-out: Relative cell viability compared to control
[1] = test system: patient-derived primary AML cells HD-23; conditions: 72 h, read-out: Relative cell viability compared to control

`Nc1ncn([C@@H]2O[C@H](CO)[C@@H](O)[C@H]2O)c(=O)n1` [Azacytidine, 4-Amino-1-β-D-ribofuranosyl-1,3,5-(1H)triazin-2-one] showed a viability at 1.5 µM (Nomo-1 cells) of 67.1%.
`O=C(Cc1cccc(OC(F)(F)F)c1)Nc1ccc(CCCCc2nnc(NC(=O)Cc3ccccn3)s2)nn1` [CB-839] showed a viability at 0.5 µM (Nomo-1 cells) of 96.1%, a viability at 1 µM (Nomo-1 cells) of 98.1% and a viability at 0.5 µM (HL-60 cells) of 95.1%. The viability at 1 µM (HL-60 cells) was 92.1% and the viability at 1 µM [1] was 84.6%.
For `C#CCC(N)C(=O)O` (stereo not shown) [PPG, 2-aminopent-4-ynoic acid], the viability at 250 µM (Nomo-1 cells) was 97.9%, the viability at 500 µM (Nomo-1 cells) was 96.6% and the viability at 1000 µM (Nomo-1 cells) was 95.2%. It also gave a viability at 250 µM (HL-60 cells) of 98.7%, a viability at 500 µM (HL-60 cells) of 98.9% and a viability at 1000 µM (HL-60 cells) of 97.9%. It also gave a viability at 2000 µM [1] of 92.9%.
Work on `CC1(C)CCC(CN2CCN(c3ccc(C(=O)NS(=O)(=O)c4ccc(NCC5CCOCC5)c([N+](=O)[O-])c4)c(Oc4cnc5[nH]ccc5c4)c3)CC2)=C(c2ccc(Cl)cc2)C1` [Venetoclax, 4-[4-[[2-(4-Chlorophenyl)-4,4-dimethyl-1-cyclohexen-1-yl]methyl]-1-piperazinyl]-N-[[3-nitro-4-[[(tetrahydro-2H-pyran-4-yl)methyl]amino]phenyl]sulfonyl]-2-(1H-pyrrolo[2,3-b]pyridin-5-yloxy)benzamide] yielded a viability at 0.015625 µM (Nomo-1 cells) of 93.8%, a viability at 0.03125 µM (Nomo-1 cells) of 90.4% and a viability at 0.0625 µM (Nomo-1 cells) of 85.4%. For the same molecule, the viability at 0.125 µM (Nomo-1 cells) was 79.8%, the viability at 0.5 µM (Nomo-1 cells) was 63.6% and the viability at 1 µM (Nomo-1 cells) was 55.3%.
